Consider 16 compounds from patent publication US12577245B2, “Sulfonyl benzamide derivatives as Bcl-2 inhibitors” (ASCENTAGE PHARMA (SUZHOU) CO., LTD., priority 2021, dated 2026).

For this assay, the target named is Bcl-2 G101V (Homo sapiens, UniProt P10415, G101V). Briefly: Bcl-2 G101V inhibition, fluorescence polarization (Flu-BIM tracer) binding assay. The following applies: FP; 20 nM Bcl2, 5 nM Flu-BIM, 1 h incubation; read-out: Bcl-2 G101V (FP). For orientation: Polarisation of emitted light reports the rotation of a fluorescent probe.
For the compound `CC1(C)CCC(CN2CCN(c3ccc(C(=O)NS(=O)(=O)c4ccc(NCC5CCOCC5)c([N+](=O)[O-])c4)c(Oc4cnc5[nH]ccc5c4)c3)CC2)=C(c2ccc(CN3CCOCC3)s2)C1` [Example 26, 2-((1H-pyrrolo[2,3-b]pyridin-5-yl)oxy)-4-(4-((4,4-dimethyl-2-(5-(morpholinomethyl)thiophen-2-yl)cyclohex-1-en-1-yl)methyl)piperazin-1-yl)-N-((3-nitro-4-(((tetrahydro-2H-pyran-4-yl)methyl)amino)phenyl)sulfonyl)benzamide], the IC50 is 57.8 nM.

`CC1(C)CCC(CN2CCN(c3ccc(C(=O)NS(=O)(=O)c4ccc(NC[C@H]5COCCO5)c([N+](=O)[O-])c4)c(Oc4cnc5[nH]ccc5c4)c3)CC2)=C(c2cc(CN3CCC(N4CCOCC4)CC3)cs2)C1` [Example 28, (S)—N-((4-(((1,4-dioxan-2-yl)methyl)amino)-3-nitrophenyl)sulfonyl)-2-((1H-pyrrolo[2,3-b]pyridin-5-yl)oxy)-4-(4-((4,4-dimethyl-2-(4-((4-morpholinopiperidin-1-yl)methyl)thiophen-2-yl)cyclohex-1-en-1-yl)methyl)piperazin-1-yl)benzamide]: the IC50 turned out to be 47 nM.

As for `C[C@@H]1CN(Cc2csc(C3=C(CN4CCN(c5ccc(C(=O)NS(=O)(=O)c6ccc(NC[C@H]7COCCO7)c([N+](=O)[O-])c6)c(Oc6cnc7[nH]ccc7c6)c5)CC4)CCC(C)(C)C3)c2)C[C@H](C)N1C` [Example 29, N-((4-((((S)-1,4-dioxan-2-yl)methyl)amino)-3-nitrophenyl)sulfonyl)-2-((1H-pyrrolo[2,3-b]pyridin-5-yl)oxy)-4-(4-((4,4-dimethyl-2-(4-(((3S,5R)-3,4,5-trimethylpiperazin-1-yl)methyl)thiophen-2-yl)cyclohex-1-en-1-yl)methyl)piperazin-1-yl)benzamide], the IC50 was found to be 71.3 nM.

Regarding `CC1(C)CCC(CN2CCN(c3ccc(C(=O)NS(=O)(=O)c4ccc(NC[C@H]5COCCO5)c([N+](=O)[O-])c4)c(Oc4cnc5[nH]ccc5c4)c3)CC2)=C(c2cc(CN3CCN4CCOC[C@H]4C3)cs2)C1` [Example 30, N-((4-((((S)-1,4-dioxan-2-yl)methyl)amino)-3-nitrophenyl)sulfonyl)-2-((1H-pyrrolo[2,3-b]pyridin-5-yl)oxy)-4-(4-((2-(4-(((R)-hexahydropyrazino[2,1-c][1,4]oxazin-8(1H)-yl)methyl)thiophen-2-yl)-4,4-dimethylcyclohex-1-en-1-yl)methyl)piperazin-1-yl)benzamide], the IC50 came to 66 nM.

On to `CC1(C)CCC(CN2CCN(c3ccc(C(=O)NS(=O)(=O)c4ccc(NC[C@H]5COCCO5)c([N+](=O)[O-])c4)c(Oc4cnc5[nH]ccc5c4)c3)CC2)=C(c2cc(CN3CCN(C4COC4)CC3)cs2)C1` [Example 31, (S)—N-((4-(((1,4-dioxan-2-yl)methyl)amino)-3-nitrophenyl)sulfonyl)-2-((1H-pyrrolo[2,3-b]pyridin-5-yl)oxy)-4-(4-((4,4-dimethyl-2-(4-((4-(oxetan-3-yl)piperazin-1-yl)methyl)thiophen-2-yl)cyclohex-1-en-1-yl)methyl)piperazin-1-yl)benzamide], for which the IC50 came to 59.2 nM.

Turning to `CC1(C)CCC(CN2CCN(c3ccc(C(=O)NS(=O)(=O)c4ccc(NC[C@H]5COCCO5)c([N+](=O)[O-])c4)c(Oc4cnc5[nH]ccc5c4)c3)CC2)=C(c2cc(CN3CCC(F)(F)CC3)cs2)C1` [Example 32, (S)—N-((4-(((1,4-dioxan-2-yl)methyl)amino)-3-nitrophenyl)sulfonyl)-2-((1H-pyrrolo[2,3-b]pyridin-5-yl)oxy)-4-(4-((2-(4-((4,4-difluoropiperidin-1-yl)methyl)thiophen-2-yl)-4,4-dimethylcyclohex-1-en-1-yl)methyl)piperazin-1-yl)benzamide], the IC50 was determined as 25.7 nM.

`CC1(C)CCC(CN2CCN(c3ccc(C(=O)NS(=O)(=O)c4ccc(NC[C@H]5COCCO5)c([N+](=O)[O-])c4)c(Oc4cnc5[nH]ccc5c4)c3)CC2)=C(c2cc(-c3ccc(F)cc3)cs2)C1` [Example 33, (S)—N-((4-(((1,4-dioxan-2-yl)methyl)amino)-3-nitrophenyl)sulfonyl)-2-((1H-pyrrolo[2,3-b]pyridin-5-yl)oxy)-4-(4-((2-(4-(4-fluorophenyl)thiophen-2-yl)-4,4-dimethylcyclohex-1-en-1-yl)methyl)piperazin-1-yl)benzamide]: the IC50 turned out to be 33.1 nM.

Regarding `CC1(C)CCC(CN2CCN(c3ccc(C(=O)NS(=O)(=O)c4ccc(NCC5CCOCC5)c([N+](=O)[O-])c4)c(Oc4cnc5[nH]ccc5c4)c3)CC2)=C(c2cc(-c3ccccc3)cs2)C1` [Example 34, 2-((1H-pyrrolo[2,3-b]pyridin-5-yl)oxy)-4-(4-((4,4-dimethyl-2-(4-phenylthiophen-2-yl)cyclohex-1-en-1-yl)methyl)piperazin-1-yl)-N-((3-nitro-4-(((tetrahydro-2H-pyran-4-yl)methyl)amino)phenyl)sulfonyl)benzamide], the IC50 worked out at 47.9 nM.

On to `CC1(C)CCC(CN2CCN(c3ccc(C(=O)NS(=O)(=O)c4ccc(NCC5CCOCC5)c([N+](=O)[O-])c4)c(Oc4cnc5[nH]ccc5c4)c3)CC2)=C(c2ccsc2-c2ccccc2)C1` [Example 35, 2-((1H-pyrrolo[2,3-b]pyridin-5-yl)oxy)-4-(4-((4,4-dimethyl-2-(2-phenylthiophen-3-yl)cyclohex-1-en-1-yl)methyl)piperazin-1-yl)-N-((3-nitro-4-(((tetrahydro-2H-pyran-4-yl)methyl)amino)phenyl)sulfonyl)benzamide], for which the IC50 worked out at 47.6 nM.

`CC1(C)CCC(CN2CCN(c3ccc(C(=O)NS(=O)(=O)c4ccc(NC[C@H]5CC[C@@](C)(O)CC5)c([N+](=O)[O-])c4)c(Oc4cnc5[nH]ccc5c4)c3)CC2)=C(c2cc(-c3ccc(F)cc3)cs2)C1` [Example 36, 2-((1H-pyrrolo[2,3-b]pyridin-5-yl)oxy)-4-(4-((2-(4-(4-fluorophenyl)thiophen-2-yl)-4,4-dimethylcyclohex-1-en-1-yl)methyl)piperazin-1-yl)-N-((4-((((1s,4s)-4-hydroxy-4-methylcyclohexyl)methyl)amino)-3-nitrophenyl)sulfonyl)benzamide]: the IC50 turned out to be 46.2 nM.

In the case of `CC1(C)CCC(CN2CCN(c3ccc(C(=O)NS(=O)(=O)c4ccc(NC[C@H]5CC[C@](C)(O)CC5)c([N+](=O)[O-])c4)c(Oc4cnc5[nH]ccc5c4)c3)CC2)=C(c2cc(-c3ccc(F)cc3)cs2)C1` [Example 37, 2-((1H-pyrrolo[2,3-b]pyridin-5-yl)oxy)-4-(4-((2-(4-(4-fluorophenyl)thiophen-2-yl)-4,4-dimethylcyclohex-1-en-1-yl)methyl)piperazin-1-yl)-N-((4-((((1r,4r)-4-hydroxy-4-methylcyclohexyl)methyl)amino)-3-nitrophenyl)sulfonyl)benzamide], the IC50 is 34.9 nM.

Turning to `CC1(C)CCC(CN2CCN(c3ccc(C(=O)NS(=O)(=O)c4ccc(NC[C@H]5COCCO5)c([N+](=O)[O-])c4)c(Oc4cnc5[nH]ccc5c4)c3)CC2)=C(c2cc(-c3ccc(Cl)cc3)cs2)C1` [Example 38, (S)—N-((4-(((1,4-dioxan-2-yl)methyl)amino)-3-nitrophenyl)sulfonyl)-2-((1H-pyrrolo[2,3-b]pyridin-5-yl)oxy)-4-(4-((2-(4-(4-chlorophenyl)thiophen-2-yl)-4,4-dimethylcyclohex-1-en-1-yl)methyl)piperazin-1-yl)benzamide], the IC50 was 35.4 nM.

As for `CC(C)c1ccccc1-c1csc(C2=C(CN3CCN(c4ccc(C(=O)NS(=O)(=O)c5ccc(NC[C@H]6COCCO6)c([N+](=O)[O-])c5)c(Oc5cnc6[nH]ccc6c5)c4)CC3)CCC(C)(C)C2)c1` [Example 39, (S)—N-((4-(((1,4-dioxan-2-yl)methyl)amino)-3-nitrophenyl)sulfonyl)-2-((1H-pyrrolo[2,3-b]pyridin-5-yl)oxy)-4-(4-((2-(4-(2-isopropylphenyl)thiophen-2-yl)-4,4-dimethylcyclohex-1-en-1-yl)methyl)piperazin-1-yl)benzamide], the IC50 amounted to 36 nM.

As to `CC1(C)CCC(CN2CCN(c3ccc(C(=O)NS(=O)(=O)c4ccc(NC[C@H]5COCCO5)c([N+](=O)[O-])c4)c(Oc4cnc5[nH]ccc5c4)c3)CC2)=C(c2cc(-c3ccc(C(F)(F)F)cc3)cs2)C1` [Example 40, (S)—N-((4-(((1,4-dioxan-2-yl)methyl)amino)-3-nitrophenyl)sulfonyl)-2-((1H-pyrrolo[2,3-b]pyridin-5-yl)oxy)-4-(4-((4,4-dimethyl-2-(4-(4-(trifluoromethyl)phenyl)thiophen-2-yl)cyclohex-1-en-1-yl)methyl)piperazin-1-yl)benzamide], the IC50 is 43.4 nM.

`CC1(C)CCC(CN2CCN(c3ccc(C(=O)NS(=O)(=O)c4ccc(NC[C@H]5CC[C@](C)(O)CC5)c([N+](=O)[O-])c4)c(Oc4cnc5[nH]ccc5c4)c3)CC2)=C(c2cc(-c3ccc(C(F)(F)F)cc3)cs2)C1` [Example 41, 2-((1H-pyrrolo[2,3-b]pyridin-5-yl)oxy)-4-(4-((4,4-dimethyl-2-(4-(4-(trifluoromethyl)phenyl)thiophen-2-yl)cyclohex-1-en-1-yl)methyl)piperazin-1-yl)-N-((4-((((1r,4r)-4-hydroxy-4-methylcyclohexyl)methyl)amino)-3-nitrophenyl)sulfonyl)benzamide]: the IC50 is 34.4 nM.

As for `CC1(C)CCC(CN2CCN(c3ccc(C(=O)NS(=O)(=O)c4ccc(NC[C@H]5COCCO5)c([N+](=O)[O-])c4)c(Oc4cnc5[nH]ccc5c4)c3)CC2)=C(c2cc(-c3ccc(F)cc3F)cs2)C1` [Example 42, (S)—N-((4-(((1,4-dioxan-2-yl)methyl)amino)-3-nitrophenyl)sulfonyl)-2-((1H-pyrrolo[2,3-b]pyridin-5-yl)oxy)-4-(4-((2-(4-(2,4-difluorophenyl)thiophen-2-yl)-4,4-dimethylcyclohex-1-en-1-yl)methyl)piperazin-1-yl)benzamide], the IC50 was 50.7 nM.
